Reference: PMC4300089, “Structure-Guided Design of Selective Epac1 and Epac2 Agonists” (PLoS Biology, 2015)

What was measured:
Epac2^fl = target: T1, Epac2^fl (Mus musculus, UniProt Q9EQZ6); test: Epac activation assay, full length Epac2; type: biochemical; design: made in house
T1 sequence (Q9EQZ6 1-993 isoform Q9EQZ6-3): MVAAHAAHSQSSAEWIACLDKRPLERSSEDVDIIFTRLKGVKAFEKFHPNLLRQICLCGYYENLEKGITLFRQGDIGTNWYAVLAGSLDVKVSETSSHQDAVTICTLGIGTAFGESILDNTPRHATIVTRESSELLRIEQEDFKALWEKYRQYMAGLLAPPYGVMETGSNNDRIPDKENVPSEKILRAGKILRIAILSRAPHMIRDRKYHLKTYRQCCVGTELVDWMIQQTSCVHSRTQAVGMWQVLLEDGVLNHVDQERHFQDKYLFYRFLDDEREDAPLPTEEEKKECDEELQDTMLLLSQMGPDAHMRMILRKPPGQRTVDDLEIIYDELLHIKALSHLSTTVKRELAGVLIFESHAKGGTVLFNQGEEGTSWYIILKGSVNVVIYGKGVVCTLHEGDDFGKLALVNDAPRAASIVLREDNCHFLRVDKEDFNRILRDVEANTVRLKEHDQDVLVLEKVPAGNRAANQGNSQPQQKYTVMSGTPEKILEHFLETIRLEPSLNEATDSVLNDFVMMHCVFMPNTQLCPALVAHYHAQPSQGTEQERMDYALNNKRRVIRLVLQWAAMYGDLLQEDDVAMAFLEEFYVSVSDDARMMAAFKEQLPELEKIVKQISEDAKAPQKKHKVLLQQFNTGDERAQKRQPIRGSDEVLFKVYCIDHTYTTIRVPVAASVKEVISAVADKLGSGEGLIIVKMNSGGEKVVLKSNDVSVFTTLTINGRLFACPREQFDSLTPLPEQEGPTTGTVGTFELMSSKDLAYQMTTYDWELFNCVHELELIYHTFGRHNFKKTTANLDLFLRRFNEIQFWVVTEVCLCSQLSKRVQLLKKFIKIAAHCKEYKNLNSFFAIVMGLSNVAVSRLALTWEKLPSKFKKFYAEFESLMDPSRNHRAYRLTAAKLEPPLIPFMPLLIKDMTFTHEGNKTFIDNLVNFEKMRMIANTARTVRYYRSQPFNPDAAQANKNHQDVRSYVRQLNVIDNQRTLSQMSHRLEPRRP
Protocol: (§1) Murine Epac2 was used as all previous structural studies were performed with it.
(§2) The activity of Epac was determined by a fluorescence assay. […] The fluorescence intensity of Rap1B•mGDP is approximately twice that of free mGDP, and thus, nucleotide exchange can be observed as a decay in fluorescence upon the addition of excess unlabeled GDP.

Epac2^Δ280,K450A = target: T2, Epac2^Δ280,K450A (Mus musculus, UniProt Q9EQZ6, K468A); test: Epac activation assay, Epac2 K450A mutant; type: biochemical
T2 construct: made in house
T2 sequence (Q9EQZ6 281-993 isoform Q9EQZ6-3 K450A): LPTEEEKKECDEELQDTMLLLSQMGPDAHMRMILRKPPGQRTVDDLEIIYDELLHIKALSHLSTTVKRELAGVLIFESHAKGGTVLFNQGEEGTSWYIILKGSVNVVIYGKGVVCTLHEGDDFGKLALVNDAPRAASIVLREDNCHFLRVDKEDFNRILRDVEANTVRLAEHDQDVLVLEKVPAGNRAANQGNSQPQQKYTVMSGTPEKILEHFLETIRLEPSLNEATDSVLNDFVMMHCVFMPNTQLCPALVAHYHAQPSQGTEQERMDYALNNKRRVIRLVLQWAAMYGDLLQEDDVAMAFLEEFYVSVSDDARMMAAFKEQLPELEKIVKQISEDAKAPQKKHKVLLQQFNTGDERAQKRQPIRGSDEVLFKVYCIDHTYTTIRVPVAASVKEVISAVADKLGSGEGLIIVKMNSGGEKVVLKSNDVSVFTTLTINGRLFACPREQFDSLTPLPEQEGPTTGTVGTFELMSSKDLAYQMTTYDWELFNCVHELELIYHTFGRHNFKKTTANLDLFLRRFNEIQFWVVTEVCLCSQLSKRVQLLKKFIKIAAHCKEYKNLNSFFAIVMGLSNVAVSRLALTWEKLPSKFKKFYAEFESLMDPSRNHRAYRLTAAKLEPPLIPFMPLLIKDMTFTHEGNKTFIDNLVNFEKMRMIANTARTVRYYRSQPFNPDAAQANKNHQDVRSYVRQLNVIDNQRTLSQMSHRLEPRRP
Protocol: as §1, §2

Work on Nc1ncnc2c1ncn2[C@@H]1O[C@@H]2COP(=O)(O)O[C@H]2[C@H]1O [cAMP, reference compound] yielded a kobs (Epac2^fl; 0.2 μM compound) of 1.9e-05 s⁻¹, a kobs (Epac2^fl; 0.3 μM compound) of 2e-05 s⁻¹ and a kobs (Epac2^fl; 0.4 μM compound) of 2.1e-05 s⁻¹. For the same compound, the kobs (Epac2^fl; 0.5 μM compound) was 2.1e-05 s⁻¹, the kobs (Epac2^fl; 0.6 μM compound) was 2.5e-05 s⁻¹ and the kobs (Epac2^fl; 0.7 μM compound) was 2.36e-05 s⁻¹. The kobs (Epac2^fl; 0.8 μM compound) was 2.47e-05 s⁻¹, the kobs (Epac2^fl; 1 μM compound) was 2.84e-05 s⁻¹ and the kobs (Epac2^fl; 2 μM compound) was 3.47e-05 s⁻¹. The kobs (Epac2^fl; 3 μM compound) was 4.1e-05 s⁻¹, the kobs (Epac2^fl; 4 μM compound) was 4.71e-05 s⁻¹ and the kobs (Epac2^fl; 5 μM compound) was 5.23e-05 s⁻¹. It also gave a kobs (Epac2^fl; 6 μM compound) of 5.05e-05 s⁻¹, a kobs (Epac2^fl; 7 μM compound) of 5.49e-05 s⁻¹ and a kobs (Epac2^fl; 8 μM compound) of 6.35e-05 s⁻¹. The kobs (Epac2^fl; 10 μM compound) was 7.22e-05 s⁻¹, the kobs (Epac2^fl; 20 μM compound) was 0.000116 s⁻¹ and the kobs (Epac2^fl; 30 μM compound) was 0.000142 s⁻¹. For the same compound, the kobs (Epac2^fl; 40 μM compound) was 0.000159 s⁻¹, the kobs (Epac2^fl; 50 μM compound) was 0.000167 s⁻¹ and the kobs (Epac2^fl; 60 μM compound) was 0.000192 s⁻¹. For the same compound, the kobs (Epac2^fl; 70 μM compound) was 0.000198 s⁻¹, the kobs (Epac2^fl; 80 μM compound) was 0.000203 s⁻¹ and the kobs (Epac2^fl; 100 μM compound) was 0.000207 s⁻¹. For the same compound, the kobs (Epac2^fl; 200 μM compound) was 0.000219 s⁻¹, the kobs (Epac2^fl; 400 μM compound) was 0.000212 s⁻¹ and the kobs (Epac2^fl; 600 μM compound) was 0.000207 s⁻¹. The kobs (Epac2^fl; 800 μM compound) was 0.000224 s⁻¹, the kobs (Epac2^Δ280,K450A; 0.01 μM compound) was 2.72e-05 s⁻¹ and the kobs (Epac2^Δ280,K450A; 0.05 μM compound) was 4e-05 s⁻¹. The kobs (Epac2^Δ280,K450A; 0.08 μM compound) was 5.02e-05 s⁻¹, the kobs (Epac2^Δ280,K450A; 0.1 μM compound) was 5.2e-05 s⁻¹ and the kobs (Epac2^Δ280,K450A; 0.2 μM compound) was 8.53e-05 s⁻¹. For the same compound, the kobs (Epac2^Δ280,K450A; 0.3 μM compound) was 0.000105 s⁻¹, the kobs (Epac2^Δ280,K450A; 0.4 μM compound) was 0.000119 s⁻¹ and the kobs (Epac2^Δ280,K450A; 0.5 μM compound) was 0.000137 s⁻¹. It also gave a kobs (Epac2^Δ280,K450A; 0.6 μM compound) of 0.000149 s⁻¹, a kobs (Epac2^Δ280,K450A; 0.7 μM compound) of 0.000155 s⁻¹ and a kobs (Epac2^Δ280,K450A; 0.8 μM compound) of 0.000159 s⁻¹. For the same compound, the kobs (Epac2^Δ280,K450A; 1 μM compound) was 0.000183 s⁻¹, the kobs (Epac2^Δ280,K450A; 2 μM compound) was 0.000228 s⁻¹ and the kobs (Epac2^Δ280,K450A; 3 μM compound) was 0.000276 s⁻¹. For the same compound, the kobs (Epac2^Δ280,K450A; 4 μM compound) was 0.000288 s⁻¹, the kobs (Epac2^Δ280,K450A; 5 μM compound) was 0.000293 s⁻¹ and the kobs (Epac2^Δ280,K450A; 6 μM compound) was 0.0003 s⁻¹. The kobs (Epac2^Δ280,K450A; 7 μM compound) was 0.000286 s⁻¹, the kobs (Epac2^Δ280,K450A; 8 μM compound) was 0.0003 s⁻¹ and the kobs (Epac2^Δ280,K450A; 10 μM compound) was 0.000289 s⁻¹. The kobs (Epac2^Δ280,K450A; 20 μM compound) was 0.000309 s⁻¹, the kobs (Epac2^Δ280,K450A; 30 μM compound) was 0.000319 s⁻¹ and the kobs (Epac2^Δ280,K450A; 40 μM compound) was 0.000313 s⁻¹. It also gave a kobs (Epac2^Δ280,K450A; 50 μM compound) of 0.000318 s⁻¹, a kobs (Epac2^Δ280,K450A; 60 μM compound) of 0.00031 s⁻¹ and a kobs (Epac2^Δ280,K450A; 70 μM compound) of 0.000323 s⁻¹. It also gave a kobs (Epac2^Δ280,K450A; 80 μM compound) of 0.000319 s⁻¹ and a kobs (Epac2^Δ280,K450A; 100 μM compound) of 0.000327 s⁻¹.
